In US9546144B2, “Bifunctional compounds” (University of Pittsburgh—of the Commonwealth System of …, priority 2011, dated 2017):

Test system: fibrosis associated gene transcripts in lung
Assay: RT-PCR of gene transcripts in lungs of 20 Gy thoracic irradiated mice
Type: in vivo, mouse
Conditions: 100 μM in drinking water continuously from day 80 after 20 Gy
Protocol: FIGS. 20A-20D. MMS350 decreases levels of irradiation induced endothelial and alveolar cell specific RNA levels. Endothelial and alveolar cells were isolated from the lungs of irradiated control or MMS350 treated mice at days 0, 29, 150, and 200 after 20 Gy thoracic irradiation. […] RNA was isolated and RT-PCR was performed for gene expression for: FIG. 20A oxidative stress induced promoters; FIG. 20B endothelial and alveolar cell markers; FIG. 20C fibrosis associated genes; and FIG. 20D endothelial cell markers. […]
FIGS. 21A-21C. […] Expression of BD1, BD2, BD3, and BRDT was determined.
Measurement of Levels of Gene Transcripts for Irradiation Inducible Promoters, Growth Factors, Inflammatory Cytokines, Adhesion Molecules microRNA, and Bromodomain Epigenetic Reader Proteins by RT-PCR
RNA was extracted from mouse lung or purified cell populations using the TRIzol reagent (Invitrogen, Carlsbad, Calif.) following the manufacturer's instructions, quantified using a spectrophotometer, and stored at −80° C. […]
Data for each gene were normalized by calculating the differences (ΔCt) from the Ct-GUSB and Ct-Target genes. Subsequently, the relative increase or decrease in expression was calculated by comparing the reference gene with the target gene (ΔΔCt) and using the formula for relative expression (=2^ΔΔCt). […]

## CC1(C[S+]([O-])CC2(C)COC2)COC1 [compound 3, 3,3′-Sulfinylbis(methylene)bis(3-methyloxetane)]
  fibrosis phase mRNA expression: decreased expression of fibrosis phase mRNA expression
